IC50 data for 2 compounds are collected here from US12595269B2, “Morpholine-like monoamine releasers” (Solvonis Therapeutics Ireland Holdings Limited, priority 2022, dated 2026).

Like-named read-outs stand apart in the source and are kept apart here.

The IC50 is the concentration at which inhibition is half-maximal.

For series [1], the target named is T1, CYP3A4 (Homo sapiens, UniProt P08684).
T1 construct: purchased Life Technologies P2377; host or cells: Baculosomes
The series is described as follows: CYP450 inhibition, fluorescent probes 7BQ and DBOMF: CYP3A4. In kind it is in vitro ADME. The settings on record: for IC50 at 10 min: human. The method, then: (§1) Methods and Procedure: The study was performed in agreement with previously described procedures to assure data integrity and adherence to GLP standards. Briefly, recombinant human CYP450 isoenzymes were used to metabolize pro-fluorescent probe substrates to fluorescent products. IC50 values determined from the effect of test compounds on the metabolism of these probe substrates were then used to determine inhibitory potency against CYP450 isoforms.
The test system was based on a three-step procedure with a “mix and read” format, where PGP-432,TI reaction and reading were performed at 37° C. The assays described herein measure in vitro inhibitory effects (pIC50) of compounds on the human P450 isoforms (1A2, 2B6, 2C8, 2C9, 2C19, 2D6, 3A4) expressed in recombinant microsomes. Pro-fluorescent probe substrates were metabolized to fluorescent products by the enzymes. Fluorescence was measured in kinetic mode (1 read/minutes for 10 minutes), and the fluorescence rate was calculated.
Inhibition of the fluorescent signal resulting from P450 activation indicated inhibitory activity and facilitated calculation of the compound pIC50. […] Concentration response curves (CRCs) of compounds were run on two different test occasions (n=2) by preparing serial dilutions from the dame compound stock solution.
To prepare the compound plate, test compounds serial dilutions 1 to 3 were performed from a 10 mM stock solution in DMSO by Biomek FX to generate 10 point CRC with the highest concentrations in columns 3 and 13.
100% DMSO was placed in columns 1 and 2 and used for assay low controls. CYP inhibitor (10 mM miconazole solution in DMSO) was placed in columns 23 and 24 and served as an assay high controls. 1 μL copy plates were then stamped into V-bottom drug plates at a concentration that is 200 fold the final assay concentration. The copy plates were diluted prior to the experiment with assay buffer to reach 4 times the final assay concentration (2% w/v DMSO).
A reference compound (e.g., miconazole) was included in each compound plate in row A, column 3 and 13. The reference compound was diluted and stamped together with test compounds. The final concentrations of the 10 point CRCs of test compounds in the assay plate were 5.00E-05; 1.67E-05; 5.56E-06; 1.85E-06; 6.17E-07; 2.06E-07; 6.86E-08; 2.29E-08; 7.62E-09 and 2.54E-09, respectively. […]
Microsomes were added to the buffer prior to the substrate addition. […] For fluorescence measurement, 10 μL/well of the test compounds were transferred from the compound plate to the assay plate using Biomek FX and the appropriate protocol. […]
10 μL/well of the cofactor was then added to the assay plate using the Multidrop before placing the assay plate in the plate reader EnVision to measure fluorescence. […]

Series [2] deals with T2, CYP2C8 (Homo sapiens, UniProt P10632).
T2 construct: purchased Life Technologies PV6138; host or cells: Baculosomes
T2 sequence (P10632 1-490): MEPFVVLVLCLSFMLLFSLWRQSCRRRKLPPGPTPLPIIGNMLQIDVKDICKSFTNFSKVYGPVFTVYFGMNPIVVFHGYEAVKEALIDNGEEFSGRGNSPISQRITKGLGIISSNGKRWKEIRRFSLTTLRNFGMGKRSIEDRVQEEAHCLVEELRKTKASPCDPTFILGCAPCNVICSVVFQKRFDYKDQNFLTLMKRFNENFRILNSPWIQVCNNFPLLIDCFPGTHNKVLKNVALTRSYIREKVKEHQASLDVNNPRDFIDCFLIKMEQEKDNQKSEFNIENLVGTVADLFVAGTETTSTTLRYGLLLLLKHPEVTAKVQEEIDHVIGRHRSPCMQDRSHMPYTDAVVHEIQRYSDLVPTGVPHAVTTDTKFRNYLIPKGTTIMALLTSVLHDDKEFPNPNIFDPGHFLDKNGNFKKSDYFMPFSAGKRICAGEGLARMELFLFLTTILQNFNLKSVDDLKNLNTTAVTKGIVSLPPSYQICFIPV
The series is described as follows: CYP450 inhibition, CYP2C8 Baculosomes, Vivid DBOMF substrate. The series is classed as in vitro ADME. The method, then: as §1
The test system was based on a three-step procedure with a “mix and read” format, where PGP-432,TI reaction and reading were performed at 37° C. […] Fluorescence was measured in kinetic mode (1 read/minutes for 10 minutes), and the fluorescence rate was calculated. […]
Next, 10 μL/well from the compound plate was added and incubated for 10 minutes at 37° C. on a plate shaker, while a mixture of Vivid Substrate and Vivid NADP+ in Vivid CYP450 Reaction Buffer was prepared. The reaction was initiated by adding 10 μL/well of the Vivid Substrate and NADP+ mixture, before transferring the plate into the fluorescent plate reader (immediately, within 2 minutes), and fluorescence was monitored every minute for 10 minutes according to the specific protocol. Regarding data analysis, the inhibition effect is expressed as a percentage. […]

T1 sequence (P08684 whole entry): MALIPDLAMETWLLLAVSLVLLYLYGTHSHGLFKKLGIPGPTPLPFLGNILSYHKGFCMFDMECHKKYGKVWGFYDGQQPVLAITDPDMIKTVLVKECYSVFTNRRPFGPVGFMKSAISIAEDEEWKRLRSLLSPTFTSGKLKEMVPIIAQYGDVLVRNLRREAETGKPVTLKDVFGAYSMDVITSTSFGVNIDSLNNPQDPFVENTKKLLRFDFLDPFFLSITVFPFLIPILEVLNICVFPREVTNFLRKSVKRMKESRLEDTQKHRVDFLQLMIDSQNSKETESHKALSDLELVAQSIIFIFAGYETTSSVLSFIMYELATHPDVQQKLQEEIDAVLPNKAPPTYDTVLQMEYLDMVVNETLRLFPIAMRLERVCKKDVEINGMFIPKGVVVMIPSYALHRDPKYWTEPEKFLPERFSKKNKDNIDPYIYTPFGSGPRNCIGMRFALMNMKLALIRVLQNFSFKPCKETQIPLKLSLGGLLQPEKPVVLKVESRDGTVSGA

For `Clc1ccc(C23CNC(CO2)C3)cc1Cl` (stereo not drawn) [522A, 1-(3,4-dichlorophenyl)-2-oxa-5-azabicyclo[2.2.1]heptane], the IC50 in series [1] (recombinant human CYP3A4, substrate 7BQ, read-out: CYP450 Inhibition (IC50), CYP3A4 (7BQ)) is above 50 µM; in series [1] (recombinant human CYP3A4, substrate DBOMF, read-out: CYP450 Inhibition (IC50), CYP3A4 (DBOMF)), above 50 µM; in series [2] (recombinant human CYP2C8), above 50 µM.
Take `CNC(C)Cc1ccc2c(c1)OCO2` (stereo not drawn) [MDMA, reference compound]: the IC50 at 10 min was 50 µM in series [1] (recombinant CYP3A4 Baculosomes, pH 8, probe Vivid DBOMF); 50 µM in series [1] (recombinant microsomes expressing CYP3A4, probe 7BQ); 50 µM in series [2] (human, recombinant CYP2C8 Baculosomes, pH 8, probe Vivid DBOMF).
